Key:
[1] = target: Sodium-dependent serotonin transporter (Rattus norvegicus, UniProt P31652); assay: Inhibition of 5-HT in Wistar rat synaptosomes assessed as [3H]-5-HT reuptake by liquid scintillation counting; format: subcellular
[2] = Inhibition of NAT in Wistar rat synaptosomes assessed as [3H]-NA reuptake by liquid scintillation counting; format: subcellular
[3] = target: Sodium-dependent dopamine transporter (Rattus norvegicus, UniProt P23977); assay: Inhibition of DAT in Wistar rat synaptosomes assessed as [3H]-DA reuptake by liquid scintillation counting; format: subcellular
Sodium-dependent dopamine transporter (Rattus norvegicus, UniProt P23977), sequence (P23977 whole entry): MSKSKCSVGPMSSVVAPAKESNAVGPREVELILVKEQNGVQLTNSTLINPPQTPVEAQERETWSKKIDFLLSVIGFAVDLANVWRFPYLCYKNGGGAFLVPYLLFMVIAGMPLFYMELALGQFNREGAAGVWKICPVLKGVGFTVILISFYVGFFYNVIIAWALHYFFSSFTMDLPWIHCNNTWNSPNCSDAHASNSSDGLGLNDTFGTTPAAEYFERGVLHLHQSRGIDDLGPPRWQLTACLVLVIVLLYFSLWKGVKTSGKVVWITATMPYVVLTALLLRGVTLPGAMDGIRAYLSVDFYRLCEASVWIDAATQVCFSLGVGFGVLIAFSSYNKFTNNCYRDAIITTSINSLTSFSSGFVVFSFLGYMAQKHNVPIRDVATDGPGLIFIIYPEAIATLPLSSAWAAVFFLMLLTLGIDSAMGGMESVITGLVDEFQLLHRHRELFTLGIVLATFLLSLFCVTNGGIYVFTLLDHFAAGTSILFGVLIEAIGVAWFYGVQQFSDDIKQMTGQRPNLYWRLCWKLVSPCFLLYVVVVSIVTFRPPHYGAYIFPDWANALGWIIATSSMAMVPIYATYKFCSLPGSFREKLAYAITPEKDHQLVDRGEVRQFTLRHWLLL

[4] = Inhibition of human sPLA2 expressed in Escherichia coli assessed as release of [14C]oleate
UT7 = assay: Induction of cell proliferation in human UT7 cells at 10 uM after 42 hrs by thymidine incorporation assay; format: functional
[5] = target: Sodium-dependent dopamine transporter (Homo sapiens, UniProt Q01959); assay: Inhibition of recombinant human DA transporter assessed as reduction in [3H]-DA reuptake
Sodium-dependent dopamine transporter (Homo sapiens, UniProt Q01959), sequence (Q01959 whole entry): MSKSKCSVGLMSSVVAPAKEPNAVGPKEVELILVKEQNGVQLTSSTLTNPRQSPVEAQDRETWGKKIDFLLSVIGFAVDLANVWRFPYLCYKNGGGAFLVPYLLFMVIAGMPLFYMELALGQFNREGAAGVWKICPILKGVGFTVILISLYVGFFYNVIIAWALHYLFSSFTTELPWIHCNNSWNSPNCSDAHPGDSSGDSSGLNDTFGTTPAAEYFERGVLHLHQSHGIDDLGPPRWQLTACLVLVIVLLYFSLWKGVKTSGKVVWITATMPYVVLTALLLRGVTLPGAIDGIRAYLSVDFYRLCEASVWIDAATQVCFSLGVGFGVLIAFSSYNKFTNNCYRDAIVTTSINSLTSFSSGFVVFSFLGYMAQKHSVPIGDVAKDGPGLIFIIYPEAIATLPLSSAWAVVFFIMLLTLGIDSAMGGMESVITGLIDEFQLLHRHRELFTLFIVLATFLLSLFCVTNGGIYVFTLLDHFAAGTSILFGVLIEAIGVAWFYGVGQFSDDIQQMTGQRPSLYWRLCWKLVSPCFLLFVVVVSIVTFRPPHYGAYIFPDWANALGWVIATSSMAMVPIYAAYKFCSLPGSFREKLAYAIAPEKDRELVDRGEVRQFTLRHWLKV

[6] = target: Sodium-dependent noradrenaline transporter (Homo sapiens, UniProt P23975); assay: Inhibition of recombinant human norepinephrine transporter assessed as reduction in [3H]-NA reuptake
Sodium-dependent noradrenaline transporter, sequence (P23975 whole entry): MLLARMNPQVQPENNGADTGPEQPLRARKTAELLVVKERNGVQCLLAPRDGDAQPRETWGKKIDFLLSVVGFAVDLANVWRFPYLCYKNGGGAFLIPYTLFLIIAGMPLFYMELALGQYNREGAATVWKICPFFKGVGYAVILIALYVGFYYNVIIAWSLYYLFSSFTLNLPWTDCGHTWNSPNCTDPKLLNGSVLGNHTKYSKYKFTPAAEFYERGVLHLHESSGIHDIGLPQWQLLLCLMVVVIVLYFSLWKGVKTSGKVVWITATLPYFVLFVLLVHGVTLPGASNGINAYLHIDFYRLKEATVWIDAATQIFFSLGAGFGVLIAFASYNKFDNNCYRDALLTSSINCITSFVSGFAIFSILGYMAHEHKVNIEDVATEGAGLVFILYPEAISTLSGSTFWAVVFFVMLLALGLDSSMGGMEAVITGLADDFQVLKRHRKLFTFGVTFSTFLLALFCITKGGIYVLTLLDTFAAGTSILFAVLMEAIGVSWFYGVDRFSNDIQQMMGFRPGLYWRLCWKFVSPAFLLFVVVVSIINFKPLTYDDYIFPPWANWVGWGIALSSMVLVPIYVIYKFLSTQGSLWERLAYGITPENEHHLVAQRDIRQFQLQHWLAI

[7] = target: Sodium-dependent serotonin transporter (Homo sapiens, UniProt P31645); assay: Inhibition of recombinant human 5-HT transporter expressed in HEK293 cells assessed as reduction in [3H]-5-HT reuptake; format: cell-based
Sodium-dependent serotonin transporter (Homo sapiens, UniProt P31645), sequence (P31645 whole entry): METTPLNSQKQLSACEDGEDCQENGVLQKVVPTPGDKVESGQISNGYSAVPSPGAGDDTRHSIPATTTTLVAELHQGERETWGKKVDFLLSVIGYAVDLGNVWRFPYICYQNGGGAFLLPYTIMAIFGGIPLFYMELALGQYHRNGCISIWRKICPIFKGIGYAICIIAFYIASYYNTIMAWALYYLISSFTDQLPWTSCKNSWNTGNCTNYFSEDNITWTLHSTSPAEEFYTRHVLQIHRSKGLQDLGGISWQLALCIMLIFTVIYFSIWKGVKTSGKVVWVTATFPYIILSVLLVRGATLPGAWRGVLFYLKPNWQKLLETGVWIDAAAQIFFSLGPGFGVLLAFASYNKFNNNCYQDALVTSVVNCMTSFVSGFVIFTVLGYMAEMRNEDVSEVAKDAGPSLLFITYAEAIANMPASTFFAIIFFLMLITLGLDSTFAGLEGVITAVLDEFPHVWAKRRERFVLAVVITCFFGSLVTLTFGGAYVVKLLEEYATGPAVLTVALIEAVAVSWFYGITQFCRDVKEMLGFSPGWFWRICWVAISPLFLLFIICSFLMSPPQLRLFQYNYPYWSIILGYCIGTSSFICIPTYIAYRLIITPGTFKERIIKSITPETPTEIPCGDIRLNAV

[8] = Inhibition of recombinant human sPLA2 after 30 mins microtiter plate assay
[9] = target: Voltage-gated inwardly rectifying potassium channel KCNH2 (Homo sapiens, UniProt Q12809); assay: Inhibition of human ERG channel tail current
Voltage-gated inwardly rectifying potassium channel KCNH2, sequence (Q12809 whole entry): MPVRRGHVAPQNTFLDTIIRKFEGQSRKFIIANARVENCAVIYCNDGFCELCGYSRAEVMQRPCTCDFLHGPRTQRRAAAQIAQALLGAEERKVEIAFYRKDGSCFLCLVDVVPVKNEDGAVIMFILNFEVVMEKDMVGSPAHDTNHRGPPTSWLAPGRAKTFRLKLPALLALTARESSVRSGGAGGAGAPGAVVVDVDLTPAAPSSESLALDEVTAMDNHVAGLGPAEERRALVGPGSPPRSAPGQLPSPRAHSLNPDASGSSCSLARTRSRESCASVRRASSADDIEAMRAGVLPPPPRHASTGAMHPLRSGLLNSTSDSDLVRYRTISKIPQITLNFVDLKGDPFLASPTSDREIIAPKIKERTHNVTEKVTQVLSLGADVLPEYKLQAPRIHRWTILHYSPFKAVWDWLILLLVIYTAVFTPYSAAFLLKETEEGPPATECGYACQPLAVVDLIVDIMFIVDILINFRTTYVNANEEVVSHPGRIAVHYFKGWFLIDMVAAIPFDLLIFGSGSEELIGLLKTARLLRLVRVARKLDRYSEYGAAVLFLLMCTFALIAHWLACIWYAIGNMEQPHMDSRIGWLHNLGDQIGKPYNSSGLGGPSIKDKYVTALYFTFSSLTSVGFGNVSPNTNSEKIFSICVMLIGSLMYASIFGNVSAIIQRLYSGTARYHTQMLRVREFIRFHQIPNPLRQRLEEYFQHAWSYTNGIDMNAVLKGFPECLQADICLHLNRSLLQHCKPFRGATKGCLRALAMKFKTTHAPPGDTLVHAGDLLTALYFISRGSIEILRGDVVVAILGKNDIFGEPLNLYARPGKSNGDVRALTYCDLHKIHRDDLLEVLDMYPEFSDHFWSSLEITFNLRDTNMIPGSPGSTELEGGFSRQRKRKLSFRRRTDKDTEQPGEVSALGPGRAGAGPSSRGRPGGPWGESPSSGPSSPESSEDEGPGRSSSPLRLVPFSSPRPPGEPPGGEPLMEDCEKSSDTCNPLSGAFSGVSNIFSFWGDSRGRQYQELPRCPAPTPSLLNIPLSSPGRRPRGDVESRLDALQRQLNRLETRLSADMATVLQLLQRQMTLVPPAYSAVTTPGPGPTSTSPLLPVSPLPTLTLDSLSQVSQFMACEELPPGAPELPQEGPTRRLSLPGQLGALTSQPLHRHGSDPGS

Sodium-dependent serotonin transporter (Rattus norvegicus, UniProt P31652), sequence (P31652 whole entry): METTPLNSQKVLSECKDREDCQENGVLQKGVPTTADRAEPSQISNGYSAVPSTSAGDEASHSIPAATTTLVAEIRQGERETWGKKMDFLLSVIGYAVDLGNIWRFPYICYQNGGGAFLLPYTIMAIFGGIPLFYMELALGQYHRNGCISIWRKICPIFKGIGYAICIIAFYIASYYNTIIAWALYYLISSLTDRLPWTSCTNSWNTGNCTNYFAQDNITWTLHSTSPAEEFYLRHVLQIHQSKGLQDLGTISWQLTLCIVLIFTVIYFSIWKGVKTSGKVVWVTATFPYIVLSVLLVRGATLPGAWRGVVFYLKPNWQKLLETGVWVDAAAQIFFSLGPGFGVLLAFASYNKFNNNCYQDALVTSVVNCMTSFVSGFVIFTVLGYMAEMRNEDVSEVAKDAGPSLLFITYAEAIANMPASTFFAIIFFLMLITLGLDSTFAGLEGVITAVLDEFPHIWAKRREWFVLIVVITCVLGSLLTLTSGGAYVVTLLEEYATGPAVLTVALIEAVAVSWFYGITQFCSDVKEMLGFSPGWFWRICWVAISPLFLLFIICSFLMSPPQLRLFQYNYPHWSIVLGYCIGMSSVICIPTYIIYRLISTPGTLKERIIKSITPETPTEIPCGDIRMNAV

Row | Compound | IC50 [1] | IC50 [2] | IC50 [3] | other results
1 | CN1C2CCC1CC(Oc1ccc3cc(-c4ccoc4)c(=O)oc3c1)C2 (configuration not stated) | 0.0029 µM | 0.0038 µM | 0.07 µM | 
2 | CN1C2CCC1CC(c1ccc3ccccc3c1)C2 (configuration not stated) | 0.00023 µM | 0.018 µM | 0.034 µM | 
3 | Cc1ccc(C2CC3CCC(C2)N3C)cc1Br (configuration not stated) | 0.0014 µM | 0.015 µM | 0.013 µM | 
4 | COc1cc2ccc(OC3CC4CCC(C3)N4C)cc2oc1=O (configuration not stated) | 0.01 µM | 0.00048 µM | 0.0099 µM | 
5 | O=C(O)CC[C@@H](CSc1ccc(Cc2ccccc2)cc1)NC(=O)CCCCCCc1ccccc1 |  |  |  | IC50 [4]: 0.021 µM
6 | COC(=O)[C@H](CCCCNC(=O)CN(CC(=O)CNc1ccc(OC)cc1)C(=O)C1CCCC(C(=O)N(CC(=O)NCCCC[C@H](NC(=O)OCc2ccccc2)C(=O)OC)CC(=O)NCc2ccc(OC)cc2)C1)NC(=O)OCc1ccccc1 (some centres not stated) |  |  |  | Activity (UT7): 33%
7 | CC(C)C(C)[C@]1(c2ccc3ccccc3c2)CC[C@](C)(O)CC1 (some centres not stated) |  |  |  | IC50 [5]: 0.021 µM; IC50 [6]: 0.033 µM; IC50 [7]: 0.018 µM
8 | CNC[C@]1(c2ccc3ccccc3c2)CC[C@@](C)(O)CC1 |  |  |  | IC50 [5]: 0.04 µM; IC50 [7]: 0.011 µM
9 | CCc1c(C(=O)C(N)=O)c2c(OCC(=O)O)cccc2n1Cc1ccccc1 [VARESPLADIB] |  |  |  | IC50 [8]: 0.009 µM
10 | CC1=NN(c2ccc(C)c(C)c2)C(=O)/C1=N\Nc1cccc(-c2cccc(C(=O)O)c2)c1O [ELTROMBOPAG] |  |  |  | IC50 [9]: 0.69 µM
11 | CN(C)CC1(c2ccc(Cl)c(Cl)c2)CCCC(O)C1 (configuration not stated) |  |  |  | IC50 [5]: 0.013 µM
